As a reminder, the IC50 is the point on the concentration scale where inhibition reaches its midpoint. As a reminder, the viability, T/C is the result in the treated group divided by that in the control group, in per cent.

The text below walks through data of PubChem BioAssay AID1919006 (Molecular Pharmacology Branch, DTP, NCI, 2023).

SMILES strings stand for the structures. Values joined by “and” are separate entries in the source; they are usually repeats but may differ in a detail not shown here. Identical values can stand only once.

For this assay, the system named is 885512-296-R-J2-PDC complex spheroid growth, % test/control. Briefly: Anticancer human tumor 885512-296-R-J2-PDC patient-derived breast carcinoma cell line growth inhibition [AhR]. The settings on record: for viability, T/C: stronger effect = lower value. A digest of the protocol:
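Agents were dosed in half-log steps down from roughly clinical Cmax, or from 10 microM where Cmax was unknown, alone and with AhR antagonists. Read-out: percent test/control growth of tumor spheroids containing HUVEC and MSC stromal cells.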
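Note: spheroids exposed to compounds for seven days.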

Consider `CC(C)CC(NC(=O)C(Cc1ccccc1)NC(=O)c1cnccn1)B(O)O` (configuration not stated) + Cc1ccccc1N=Nc1ccc(NC(=O)c2ccnn2C)c(C)c1, for which the IC50 runs as follows: (curve of first compound, second compound 0.1 µM) 6.58 nM; (curve of first compound, second compound 0.316 µM) 7.08 nM; (curve of first compound, second compound 1 µM) 6.29 nM; (curve of first compound, second compound 3.16 µM) 6.14 nM; (curve of first compound, second compound 10 µM) 3.21 nM. Besides, the viability, T/C is 96.7% (second compound 0.1 µM, first compound 0.000949 µM); 105% (second compound 0.1 µM, first compound 0.003 µM); 26.3% (second compound 0.1 µM, first compound 0.00949 µM); 1.3% (second compound 0.1 µM, first compound 0.03 µM); 0.26% (second compound 0.1 µM, first compound 0.0949 µM); 0.15% (second compound 0.1 µM, first compound 0.3 µM). Besides, the viability, T/C was 115% (second compound 0.316 µM, first compound 0.000949 µM); 122% (second compound 0.316 µM, first compound 0.003 µM); 26.6% (second compound 0.316 µM, first compound 0.00949 µM); 1.13% (second compound 0.316 µM, first compound 0.03 µM); 0.18% (second compound 0.316 µM, first compound 0.0949 µM); 0.13% (second compound 0.316 µM, first compound 0.3 µM). Further, the viability, T/C was 111% (second compound 1 µM, first compound 0.000949 µM); 101% (second compound 1 µM, first compound 0.003 µM); 21.8% (second compound 1 µM, first compound 0.00949 µM); 1.27% (second compound 1 µM, first compound 0.03 µM); 0.5% (second compound 1 µM, first compound 0.0949 µM); 0.13% (second compound 1 µM, first compound 0.3 µM). Also, the viability, T/C by setting is: (second compound 3.16 µM, first compound 0.000949 µM) 82%; (second compound 3.16 µM, first compound 0.003 µM) 94.2%; (second compound 3.16 µM, first compound 0.00949 µM) 26.8%; (second compound 3.16 µM, first compound 0.03 µM) 1.47%; (second compound 3.16 µM, first compound 0.0949 µM) 0.16%; (second compound 3.16 µM, first compound 0.3 µM) 0.14%. In addition, the viability, T/C reads like this: (second compound 10 µM, first compound 0.000949 µM) 58%; (second compound 10 µM, first compound 0.003 µM) 50.3%; (second compound 10 µM, first compound 0.00949 µM) 25.8%; (second compound 10 µM, first compound 0.03 µM) 1.46%; (second compound 10 µM, first compound 0.0949 µM) 0.3%; (second compound 10 µM, first compound 0.3 µM) 0.18%.

With `O=C(C=Cc1cccc(S(=O)(=O)Nc2ccccc2)c1)NO`, the viability, T/C (compound 0.0316 µM) is 90.3% and 90% and 85.2%; the viability, T/C (compound 0.1 µM) is 86.3% and 84.5% and 83.5%; the viability, T/C (compound 0.316 µM) was 59.8% and 62.8% and 69.6%; the viability, T/C (compound 1 µM) was 45.6% and 39% and 44.7%; the viability, T/C (compound 3.16 µM) was 26.5% and 27.6% and 33.8%; the viability, T/C (compound 10 µM) is 10.4% and 6.72% and 10.9%. The IC50 (curve of compound) is 725 nM and 670 nM and 991 nM.
